{"source": "paper PMC11402846", "about": "“Does a postmortem redistribution affect the concentrations of the 7 azaindole-derived synthetic cannabinoid 5F-MDMB-P7AICA in tissues and body fluids following pulmonary administration to pigs?” (Archives of Toxicology, 2024)", "key": {"[1]": {"design": "method as in Walle et al. [2023]", "conditions": "authentic fatal case, comparable survival time after drug intake; ref Walle et al. [2023]; cited from earlier work"}, "P-glycoprotein": {"tested_on": "P-glycoprotein", "design": "method as in unpublished data of the authors", "conditions": "ref unpublished data of the authors; cited from earlier work"}, "[2]": {"experiment": "Perimortem and postmortem concentrations in tissues and body fluids after pulmonary administration of 5F-MDMB-P7AICA to pigs (LC-MS/MS)", "assay_type": "in vivo", "conditions": "pig", "protocol": "The experiments were conducted in compliance with the German legislation on protection of animals and the National Institutes of Health Guide for the Care and Use of Laboratory Animals (permission number 32/2018). Six domestic male pigs (Swabian Hall strain; body weight [BW] 40–51.2 kg, 3 months old) were kept with free access to water and standard daily food (OlymPig fattening feed, Raiffeisen, Münster, Germany). One night prior to the experiments, the animals were kept fasting. […] The room temperature was 22 ± 1 °C with a humidity of 55 ± 10%.\nAs previously described (Doerr et al. [2020]; Schaefer et al. [2019], [2020a]), an ethanolic solution of 5 mg/mL 5F-MDMB-P7AICA was prepared. An aliquot of 1.600–2.048 mL was filled up with ethanol to a total volume of 2 mL, if needed to achieve a concentration of 200 µg per kg BW. The SC was administered inhalatively over 6.5–8 min, using a M-Neb flow + ventilation ultrasonic nebulizer MN-300/7 (Nebutec, Elsenfeld, Germany) in the inspiration-triggered mode.\nAnimal euthanasia was conducted eight hours after the drug administration using T 61 (embutramide, 0.12 mL/kg BW, Intervet Deutschland GmbH, Unterschleißheim, Germany). Afterwards, the abdominal cavity was opened. Samples of the following organs, tissues and body fluids were collected (PMI 0) and stored at − 20 °C until further analysis: Brain (cerebrum), lungs and liver with no differentiation between the lobes, kidneys, muscle tissue (from the hindleg), adipose tissue (subcutaneous (sc), dorsal, perirenal), bile fluid, duodenum content, urine (only at PMI 0) and PB (V. jugularis) as well as CB.\nThe abdominal cavity was sutured leaving the organs in situ and the animal bodies were kept at room temperature in a supine position. Analogously, samples were taken again after 24, 48 and 72 h (PMI 1–3), respectively. Yet, PM PB specimens were obtained by sampling the coagulated blood from the V. femoralis or V. brachialis. For this purpose, the whole vessel was sampled and the blood was drawn therefrom using a pipette with a wide lumen.\nSpecimens were prepared according to a previous published method (Schaefer et al. [2017], [2019], [2020a]) with changes regarding the applied buffers and the amount of acetonitrile. An amount of 2 g of solid tissue (brain, lung, liver, kidney and muscle tissue) was homogenized (1:5 w/w with water), respectively and 1 g of body fluids (bile fluid, duodenum content, and urine) was diluted (1:10 w/w for bile and duodenum content, 1:5 w/w for urine, respectively, with water). The samples were stored at − 20 °C.\nTo determine the standard addition calibration curves, four 0.5 g aliquots were added to 20 µL of an ethanolic stable-isotope-labeled internal standard solution (SIL-IS, 1 ng/20 µL AB-FUBINACA-d4) and 25 µL of ethanol or an ethanolic solution of the analytes.\nSubsequently, the solution was mixed with 500 µL of acetate buffer and 50 µL of β-glucuronidase/arylsulfatase and incubated for 2 h at 60 °C to induce enzymatic hydrolysis of the glucuronidated DBA (phase-II metabolite).\nFor the following protein precipitation, the samples were mixed with 500 µL of acetonitrile and centrifuged at 3500g for 8 min. The supernatants were transferred to 1 mL phosphate buffer (pH 9) vortexed and centrifuged at 3500g for 8 min again.\nSolid phase extraction (SPE) was carried out using Strata C18 end capped cartridges (Phenomenex, Aschaffenburg, Germany), previously conditioned with 2 × 3 mL methanol and 3 mL phosphate buffer. After loading the samples, the columns were washed with 3 mL phosphate buffer, 3 mL acetic acid (0.25 M) and 3 mL deionized water, respectively. 60 μL acetone was added and columns were dried for 5 min using negative pressure (about 33 kPa). Thereafter, the analytes were eluted with a mixture of 1.5 mL methanol-acetone (1:1, v/v) and the eluate was evaporated under a gentle stream of nitrogen at 60 °C. […]"}, "[3]": {"conditions": "200 µg/kg BW inhalative, PMI 0 (8 h after administration)"}, "[4]": {"conditions": "200 µg/kg BW inhalative, PMI 1 (24 h after euthanasia, room temperature)"}, "[5]": {"conditions": "200 µg/kg BW inhalative, PMI 2 (48 h after euthanasia, room temperature)"}, "[6]": {"conditions": "200 µg/kg BW inhalative, PMI 3 (72 h after euthanasia, room temperature)"}}}
{"compound": "COC(=O)C(NC(=O)c1cn(CCCCCF)c2ncccc12)C(C)(C)C", "note": "(stereo not shown) [5F-MDMB-P7AICA, methyl[2-[1-(5-fluoropentyl)-1H-pyrrolo[2,3-b]pyridin-3-yl]formamido]-3,3-dimethylbutanoate]", "values": [{"measurement": "CB concentration in fatal case", "setting": "[1]", "value": 0.69, "unit": "ng/mL"}, {"measurement": "PB concentration in fatal case", "setting": "[1]", "value": 1.2, "unit": "ng/mL"}, {"measurement": "substrate of the P-glycoprotein", "setting": "P-glycoprotein", "value": "is a substrate of the P-glycoprotein"}, {"measurement": "Mean concentration ± SD in CB (central blood)", "setting": "[2]; [3]", "value": "0.21 ± 0.10", "unit": "n = 6 ng/mL"}, {"measurement": "Mean concentration ± SD in bile fluid", "setting": "[2]; [3]", "value": "11 ± 9.9", "unit": "n = 6 ng/g"}, {"measurement": "Mean concentration ± SD in brain", "setting": "[2]; [3]", "value": "0.33 ± 0.15", "unit": "n = 6 ng/g"}, {"measurement": "Mean concentration ± SD in dorsal fat", "setting": "[2]; [3]", "value": "30 ± 16", "unit": "n = 6 ng/g"}, {"measurement": "Mean concentration ± SD in duodenum content", "setting": "[2]; [3]", "value": "2.7 ± 3.1", "unit": "n = 6 ng/g"}, {"measurement": "Mean concentration ± SD in kidney", "setting": "[2]; [3]", "value": "No parent compound could be found and neg"}, {"measurement": "Mean concentration ± SD in liver", "setting": "[2]; [3]", "value": "0.16 ± 0.043", "unit": "n = 3 ng/g"}, {"measurement": "Mean concentration ± SD in lung", "setting": "[2]; [3]", "value": "0.41 ± 0.26", "unit": "n = 6 ng/g"}, {"measurement": "Mean concentration ± SD in muscle", "setting": "[2]; [3]", "value": "0.62 ± 0.10", "unit": "n = 6 ng/g"}, {"measurement": "Mean concentration ± SD in perirenal fat", "setting": "[2]; [3]", "value": "33 ± 31", "unit": "n = 6 ng/g"}, {"measurement": "Mean concentration ± SD in s.c. fat", "setting": "[2]; [3]", "value": "51 ± 30", "unit": "n = 6 ng/g"}, {"measurement": "Mean concentration ± SD in urine", "setting": "[2]; [3]", "value": "No parent compound could be found and neg"}, {"measurement": "Mean concentration ± SD in CB (central blood)", "setting": "[2]; [4]", "value": "0.25 ± 0.10", "unit": "n = 5 ng/mL"}, {"measurement": "Mean concentration ± SD in PB (peripheral blood)", "setting": "[2]; [4]", "value": "0.67 ± 0.37", "unit": "n = 6 ng/mL"}, {"measurement": "Mean concentration ± SD in bile fluid", "setting": "[2]; [4]", "value": "3.5 ± 3.1", "unit": "n = 6 ng/g"}, {"measurement": "Mean concentration ± SD in brain", "setting": "[2]; [4]", "value": "0.23 ± 0.10", "unit": "n = 6 ng/g"}, {"measurement": "Mean concentration ± SD in dorsal fat", "setting": "[2]; [4]", "value": "35 ± 26", "unit": "n = 6 ng/g"}, {"measurement": "Mean concentration ± SD in duodenum content", "setting": "[2]; [4]", "value": "0.44 ± 0.22", "unit": "n = 6 ng/g"}, {"measurement": "Mean concentration ± SD in kidney", "setting": "[2]; [4]", "value": "0.090–0.10 n = 2 ng/g"}, {"measurement": "Mean concentration ± SD in liver", "setting": "[2]; [4]", "value": "0.21–0.29 n = 2 ng/g"}, {"measurement": "Mean concentration ± SD in lung", "setting": "[2]; [4]", "value": "0.50 ± 0.085", "unit": "n = 3 ng/g"}, {"measurement": "Mean concentration ± SD in muscle", "setting": "[2]; [4]", "value": "0.77 ± 0.28", "unit": "n = 6 ng/g"}, {"measurement": "Mean concentration ± SD in perirenal fat", "setting": "[2]; [4]", "value": "30 ± 20", "unit": "n = 6 ng/g"}, {"measurement": "Mean concentration ± SD in s.c. fat", "setting": "[2]; [4]", "value": "53 ± 43", "unit": "n = 6 ng/g"}, {"measurement": "Mean concentration ± SD in CB (central blood)", "setting": "[2]; [5]", "value": "0.20 ± 0.090", "unit": "n = 5 ng/mL"}, {"measurement": "Mean concentration ± SD in PB (peripheral blood)", "setting": "[2]; [5]", "value": "0.58 ± 0.35", "unit": "n = 6 ng/mL"}, {"measurement": "Mean concentration ± SD in brain", "setting": "[2]; [5]", "value": "0.10 ± 0.065", "unit": "n = 6 ng/g"}, {"measurement": "Mean concentration ± SD in dorsal fat", "setting": "[2]; [5]", "value": "25 ± 15", "unit": "n = 6 ng/g"}, {"measurement": "Mean concentration ± SD in duodenum content", "setting": "[2]; [5]", "value": "0.59 ± 0.48", "unit": "n = 5 ng/g"}, {"measurement": "Mean concentration ± SD in kidney", "setting": "[2]; [5]", "value": "0.17 ± 0.16", "unit": "n = 5 ng/g"}, {"measurement": "Mean concentration ± SD in liver", "setting": "[2]; [5]", "value": "1.1 ± 2.0", "unit": "n = 6 ng/g"}, {"measurement": "Mean concentration ± SD in lung", "setting": "[2]; [5]", "value": "0.65 ± 0.37", "unit": "n = 5 ng/g"}, {"measurement": "Mean concentration ± SD in muscle", "setting": "[2]; [5]", "value": "1.0 ± 0.67", "unit": "n = 6 ng/g"}, {"measurement": "Mean concentration ± SD in perirenal fat", "setting": "[2]; [5]", "value": "32 ± 35", "unit": "n = 6 ng/g"}, {"measurement": "Mean concentration ± SD in s.c. fat", "setting": "[2]; [5]", "value": "40 ± 28", "unit": "n = 6 ng/g"}, {"measurement": "Mean concentration ± SD in CB (central blood)", "setting": "[2]; [6]", "value": "0.24 ± 0.11", "unit": "n = 5 ng/mL"}, {"measurement": "Mean concentration ± SD in PB (peripheral blood)", "setting": "[2]; [6]", "value": "0.43 ± 0.16", "unit": "n = 6 ng/mL"}, {"measurement": "Mean concentration ± SD in brain", "setting": "[2]; [6]", "value": "0.16 ± 0.16", "unit": "n = 4 ng/g"}, {"measurement": "Mean concentration ± SD in dorsal fat", "setting": "[2]; [6]", "value": "33 ± 27", "unit": "n = 6 ng/g"}, {"measurement": "Mean concentration ± SD in duodenum content", "setting": "[2]; [6]", "value": "0.89 ± 0.71", "unit": "n = 6 ng/g"}, {"measurement": "Mean concentration ± SD in kidney", "setting": "[2]; [6]", "value": "0.23 ± 0.088", "unit": "n = 5 ng/g"}, {"measurement": "Mean concentration ± SD in liver", "setting": "[2]; [6]", "value": "0.44 ± 0.18", "unit": "n = 5 ng/g"}, {"measurement": "Mean concentration ± SD in lung", "setting": "[2]; [6]", "value": "0.71 ± 0.54", "unit": "n = 5 ng/g"}, {"measurement": "Mean concentration ± SD in muscle", "setting": "[2]; [6]", "value": "2.3 ± 2.1", "unit": "n = 6 ng/g"}, {"measurement": "Mean concentration ± SD in perirenal fat", "setting": "[2]; [6]", "value": "22 ± 19", "unit": "n = 6 ng/g"}, {"measurement": "Mean concentration ± SD in s.c. fat", "setting": "[2]; [6]", "value": "35 ± 26", "unit": "n = 6 ng/g"}, {"measurement": "Concentration in bile fluid", "setting": "[2]; 200 µg/kg BW inhalative, PMI 3 (72 h after euthanasia, room temperature), only sampled from 2 pigs", "value": "3.6–7.4 n = 2^2 ng/g"}, {"measurement": "Mean concentration ± SD in PB (peripheral blood)", "setting": "[2]; 5F-MDMB-P7AICA 200 µg/kg BW inhalative, PMI 0 (8 h after administration)", "value": "0.57 ± 0.19", "unit": "n = 6 ng/mL"}, {"measurement": "Postmortem redistribution (PMR)", "setting": "[2]; 3 days storage at room temperature", "value": "no relevant PMR was observed"}, {"measurement": "central-to-peripheral blood (C/P) concentration ratio", "setting": "[2]; PMI 0", "value": "lower than 1"}, {"measurement": "liver-to-peripheral blood (L/P) ratio", "setting": "[2]; PMI 0", "value": "< 5"}, {"measurement": "C/P concentration ratio", "setting": "[2]; PMI 1–3", "value": "< 1"}, {"measurement": "L/P concentration ratio", "setting": "[2]; PMI 1–3", "value": "< 5"}, {"measurement": "Concentration change in liver specimens", "setting": "[2]; PMI 2 and 3 versus PMI 0, p < 0.05", "value": "significant higher"}, {"measurement": "Concentration change in muscle tissue", "setting": "[2]; from PMI 0 to PMI 3, p < 0.05", "value": "significantly increased"}]}
